Patent publication US20100240642A1, “1H-Indole-2-Carboxylic Acid Derivatives Useful As PPAR Modulators” (SMITHKLINE BEECHAM CORPORATION, priority 2006, published 2010)

Molecular target: T1, hPPARγ receptor (Homo sapiens, UniProt P37231)
T1 construct: expressed in transfected cells; host or cells: CV-1 (African Green Monkey kidney, ATCC CCL-70)
T1 sequence (P37231 172-475 isoform P37231-2): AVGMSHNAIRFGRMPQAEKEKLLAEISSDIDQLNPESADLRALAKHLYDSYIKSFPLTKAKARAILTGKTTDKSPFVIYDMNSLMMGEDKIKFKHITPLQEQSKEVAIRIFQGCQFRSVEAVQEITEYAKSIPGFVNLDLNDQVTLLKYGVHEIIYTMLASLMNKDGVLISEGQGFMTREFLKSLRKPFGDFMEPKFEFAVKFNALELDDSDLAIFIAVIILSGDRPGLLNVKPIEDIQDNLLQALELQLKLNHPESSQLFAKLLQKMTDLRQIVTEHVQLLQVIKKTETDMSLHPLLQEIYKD
Assay: PPARγ Cell-based luciferase assay
Settings: CV-1 cells transfected with GAL4-hPPARγ LBD and UAStkLuc; at concentrations of 10^−6 M or less; read-out: agonism of the hPPARγ receptor (activation relative to full agonist rosiglitazone)
Source text: Plasmids—PCR primers containing Kpnl and BamHI restriction sites were used to amplify PPARγ ligand binding domain (LBD) fragment (172-475) from a full-length human clone. The LBD fragment was ligated into the multiple cloning site of pFA-CMV (Stratagene). The resulting construct (pFA-CMV-GAL4-hPPARγLBD carried a fusion of the LBD with the yeast-derived GAL4 DNA-binding domain under the control of the CMV immediate early promoter. Reporter construct UAStkLuc carries a single 17 bp (CGGAGTACTGTCCTCCG) upstream activating sequence (UAS), the tk minimal promoter, and the firefly luciferase gene. The integrity of each construct was confirmed by diagnostic restriction digestion and by sequencing. Plasmid DNA was prepared using Qiagen Maxi-Prep kits.
PPARγ Cell-based luciferase assay—African Green Monkey kidney cell line CV-1 (ATCC CCL-70) was maintained in Dulbecco's Modified Eagle's Medium (D-MEM) containing 10% fetal bovine serum, 2 mM glutamine, and 1% penicillin/streptomycin (pen/strep). In preparation for luciferase assays, CV-1 cells were grown in charcoal-stripped cell medium containing D-MEM/F-12 medium supplemented with 5% or 3% dextran-treated/charcoal-stripped (CS) fetal bovine serum, 2 mM glutamine, with or without 1% pen/strep, as described below. CS fetal bovine serum was purchased from Hyclone; all other cell culture reagents were from Gibco.
The luciferase protocol is a multi-day procedure. On day 1, confluent cells in maintenance medium were subcultured 1:10 into T-175 cm^2 flasks containing 50 mL of 3% CS medium with pen/strep. These flasks were allowed to incubate at 5% CO2 and 37° C. for 72 hours.
Cells were harvested by trypsinization and then transfected using FuGENE (Roche) according to the manufacturer's specifications. Briefly, each transfection contained 0.55 μg pFA_CMV_GAL4_hPPARγ_LBD plasmid, 10.9 μg UAStkLUC, and 24 μg pBluescript (carrier DNA). Plasmid DNA was mixed with FuGENE in OptiMEM-1 medium and incubated for 30 min at room temperature. During this incubation, cells were harvested into 3% CS medium without pen-strep and dispensed at 14 million cells per T-175 cm^2 flask. Transfection mixes were added to the flasks and incubated overnight at 5% CO2 and 37° C.
Transfected cells were added to 384-well plates containing pharmacological agents. Rosiglitazone standard was reconstituted in DMSO at 1 mM. For 11-point dose-response experiments, the compounds were 3-fold serially diluted in DMSO and then stamped to 384-well assay plates (NUNC, catalog #164564) at 0.5 μL/well using a Beckman FX. DMSO and agonist control compound Rosiglitazone (1 mM) were each stamped at 0.5 μL/well to columns 23 and 24, respectively, of the 384-well plates. Transfected cells were harvested in 5% CS medium with pen/strep and dispensed at 10,000 cells/well (50 μL) onto the prepared 384-well compound plates using a Titertek Multidrop. Following overnight incubation at 5% CO2 and 37° C., Steady-Glo reagent (Promega) was added to the assay plates using a Multidrop. Plates were incubated for 10 min to ensure complete cell lysis and read in a ViewLux (PerkinElmer). […] Partial agonism is defined here as 20-80% activation (relative to full agonist rosiglitazone) at concentrations of 10^−6 M or less.

Row | Emax [%] | Structure (SMILES)
1 | 20 to 80 | CC(C)(C)c1ccc(-c2c(C(=O)O)n(Cc3cc(OCc4ccccc4)cc(OCC4CC4)c3)c3ccccc23)cc1 [Example 1, 1-({3-[(cyclopropylmethyl)oxy]-5-[(phenylmethyl)oxy]phenyl}methyl)-3-[4-(1,1-dimethylethyl)phenyl]-1H-indole-2-carboxylic acid]
2 | 20 to 80 | CC(C)(C)c1ccc(-c2c(C(=O)O)n(Cc3cc(O)cc(OCC4CC4)c3)c3ccccc23)cc1 [Example 3, 1-({3-[(cyclopropylmethyl)oxy]-5-hydroxyphenyl}methyl)-3-[4-(1,1-dimethylethyl)phenyl]-1H-indole-2-carboxylic acid]
3 | 20 to 80 | COc1cc(Cn2c(C(=O)O)c(-c3ccc(C(C)(C)C)cc3)c3ccccc32)cc(OCC2CC2)c1 [Example 4, 1-{[3-[(cyclopropylmethyl)oxy]-5-(methyloxy)phenyl]methyl}-3-[4-(1,1-dimethylethyl)phenyl]-1H-indole-2-carboxylic acid]
4 | 20 to 80 | CC(C)(C)c1ccc(-c2c(C(=O)O)n(Cc3cc(OCC4CC4)cc(OCC4CC4)c3)c3ccccc23)cc1 [Example 5, 1-({3,5-bis[(cyclopropylmethyl)oxy]phenyl}methyl)-3-[4-(1,1-dimethylethyl)phenyl]-1H-indole-2-carboxylic acid]
5 | 20 to 80 | CC(C)CCOc1cc(Cn2c(C(=O)O)c(-c3ccc(C(C)(C)C)cc3)c3ccccc32)cc(OCC2CC2)c1 [Example 6, 1-({3-[(cyclopropylmethyl)oxy]-5-[(3-methylbutyl)oxy]phenyl}methyl)-3-[4-(1,1-dimethylethyl)phenyl]-1H-indole-2-carboxylic acid]
6 | 20 to 80 | CC(C)(C)c1ccc(-c2c(C(=O)O)n(Cc3cccc(-c4ccc(C(=O)O)cc4)c3)c3ccccc23)cc1 [Example 7, 1-[(4′-carboxy-3-biphenylyl)methyl]-3-[4-(1,1-dimethylethyl)phenyl]-1H-indole-2-carboxylic acid]
7 | 20 to 80 | CC(C)(C)c1ccc(-c2c(C(=O)O)n(Cc3cccc(-c4ccc(OCc5ccccc5)cc4)c3)c3ccccc23)cc1 [Example 8, 3-[4-(1,1-dimethylethyl)phenyl]-1-({4′-[(phenylmethyl)oxy]-3-biphenylyl}methyl)-1H-indole-2-carboxylic acid]
8 | 20 to 80 | CC(C)(C)c1ccc(-c2c(C(=O)O)n(Cc3cccc(-c4ccc(O)cc4)c3)c3ccccc23)cc1 [Example 9, 3-[4-(1,1-dimethylethyl)phenyl]-1-[(4′-hydroxy-3-biphenylyl)methyl]-1H-indole-2-carboxylic acid]
9 | 20 to 80 | Cc1ccc(-c2ccc(O)cc2)cc1Cn1c(C(=O)O)c(-c2ccc(C(C)(C)C)cc2)c2ccccc21 [Example 10, 3-[4-(1,1-dimethylethyl)phenyl]-1-[(4′-hydroxy-4-methyl-3-biphenylyl)methyl]-1H-indole-2-carboxylic acid]
10 | 20 to 80 | Cc1ccc(-c2ccc(OC(C)(C)C(=O)O)cc2)cc1Cn1c(C(=O)O)c(-c2ccc(C(C)(C)C)cc2)c2ccccc21 [Example 12, 1-({4′-[(1-carboxy-1-methylethyl)oxy]-4-methyl-3-biphenylyl}methyl)-3-[4-(1,1-dimethylethyl)phenyl]-1H-indole-2-carboxylic acid]
11 | 20 to 80 | COc1ccc(-c2ccc(C)c(Cn3c(C(=O)O)c(-c4ccc(C(C)(C)C)cc4)c4ccccc43)c2)cc1 [Example 13, 3-[4-(1,1-dimethylethyl)phenyl]-1-{[4-methyl-4′-(methyloxy)-3-biphenylyl]methyl}-1H-indole-2-carboxylic acid]
12 | 20 to 80 | CC(=O)c1ccc(-c2c(C(=O)O)n(Cc3cc(-c4ccc(C(=O)O)cc4)ccc3C)c3ccccc23)cc1 [Example 14, 3-(4-acetylphenyl)-1-[(4′-carboxy-4-methyl-3-biphenylyl)methyl]-1H-indole-2-carboxylic acid]
13 | 20 to 80 | CC(C)(C)c1ccc(-c2c(C(=O)O)n(Cc3cc(OCC4CC4)cc(-c4ccc(C(=O)O)cc4)c3)c3ccccc23)cc1 [Example 15, 1-({4′-carboxy-5-[(cyclopropylmethyl)oxy]-3-biphenylyl}methyl)-3-[4-(1,1-dimethylethyl)phenyl]-1H-indole-2-carboxylic acid]
14 | 20 to 80 | COc1ccc(-c2c(C(=O)O)n(Cc3cccc(-c4ccc(O)cc4)c3)c3ccccc23)cn1 [Example 16, 1-[(4′-hydroxy-3-biphenylyl)methyl]-3-[6-(methyloxy)-3-pyridinyl]-1H-indole-2-carboxylic acid]
15 | 20 to 80 | CSc1cccc(-c2ccc(C)c(Cn3c(C(=O)O)c(-c4ccc(C(C)(C)C)cc4)c4ccccc43)c2)c1 [Example 17, 3-[4-(1,1-dimethylethyl)phenyl]-1-{[4-methyl-3′-(methylthio)-3-biphenylyl]methyl}-1H-indole-2-carboxylic acid]
16 | 20 to 80 | CC(C)(C)c1ccc(-c2c(C(=O)O)n(Cc3cc(OCc4ccccc4)cc(-c4ccc(C(=O)O)cc4)c3)c3ccccc23)cc1 [Example 19, 1-({4′-carboxy-5-[(phenylmethyl)oxy]-3-biphenylyl}methyl)-3-[4-(1,1-dimethylethyl)phenyl]-1H-indole-2-carboxylic acid]
17 | 20 to 80 | COCCOc1cc(Cn2c(C(=O)O)c(-c3ccc(C(C)(C)C)cc3)c3ccccc32)cc(-c2ccc(C(=O)O)cc2)c1 [Example 20]
18 | 20 to 80 | COc1ccc(-c2c(C(=O)O)n(Cc3cc(-c4ccc(C(=O)O)cc4)ccc3C)c3ccccc23)cn1 [Example 21, 1-[(4′-carboxy-4-methyl-3-biphenylyl)methyl]-3-[6-(methyloxy)-3-pyridinyl]-1H-indole-2-carboxylic acid]
19 | 20 to 80 | CC(C)(C)c1ccc(-c2c(C(=O)O)n(Cc3cc(O)cc(-c4ccc(C(=O)O)cc4)c3)c3ccccc23)cc1 [Example 22, 1-[(4′-carboxy-5-hydroxy-3-biphenylyl)methyl]-3-[4-(1,1-dimethylethyl)phenyl]-1H-indole-2-carboxylic acid]
20 | 20 to 80 | CSc1ccc(-c2cccc(Cn3c(C(=O)O)c(-c4ccc(C(C)(C)C)cc4)c4ccccc43)c2)cc1 [Example 23, 3-[4-(1,1-dimethylethyl)phenyl]-1-{[4′-(methylthio)-3-biphenylyl]methyl}-1H-indole-2-carboxylic acid]
21 | 20 to 80 | CC(C)(C)c1ccc(-c2c(C(=O)O)n(Cc3cccc(-c4cccc(S(C)(=O)=O)c4)c3)c3ccccc23)cc1 [Example 25, 3-[4-(1,1-dimethylethyl)phenyl]-1-{[3′-(methylsulfonyl)-3-biphenylyl]methyl}-1H-indole-2-carboxylic acid]
22 | 20 to 80 | CC(C)(C)c1ccc(-c2c(C(=O)O)n(Cc3cccc(N4CCOCC4)c3)c3ccccc23)cc1 [Example 26, 3-[4-(1,1-dimethylethyl)phenyl]-1-{[3-(4-morpholinyl)phenyl]methyl}-1H-indole-2-carboxylic acid]
23 | 20 to 80 | Cc1ccc(N2CCOCC2)cc1Cn1c(C(=O)O)c(-c2ccc(C(C)(C)C)cc2)c2ccccc21 [Example 27, 3-[4-(1,1-dimethylethyl)phenyl]-1-{[2-methyl-5-(4-morpholinyl)phenyl]methyl}-1H-indole-2-carboxylic acid]
24 | 20 to 80 | Cc1ccc(-c2ccc(C(=O)N(C)C)cc2)cc1Cn1c(C(=O)O)c(-c2ccc(C(C)(C)C)cc2)c2ccccc21 [Example 28, 1-({4′-[(dimethylamino)carbonyl]-4-methyl-3-biphenylyl}methyl)-3-[4-(1,1-dimethylethyl)phenyl]-1H-indole-2-carboxylic acid]
